Experimental data reported in ChEMBL document CHEMBL1145498, “A systematic interaction map of validated kinase inhibitors with Ser/Thr kinases” (Proc Natl Acad Sci U S A, 2007).

How the values were obtained:
[1] = target: T1, Lymphokine-activated killer T-cell-originated protein kinase (Homo sapiens) (UniProt Q96KB5)
T1 sequence (whole entry): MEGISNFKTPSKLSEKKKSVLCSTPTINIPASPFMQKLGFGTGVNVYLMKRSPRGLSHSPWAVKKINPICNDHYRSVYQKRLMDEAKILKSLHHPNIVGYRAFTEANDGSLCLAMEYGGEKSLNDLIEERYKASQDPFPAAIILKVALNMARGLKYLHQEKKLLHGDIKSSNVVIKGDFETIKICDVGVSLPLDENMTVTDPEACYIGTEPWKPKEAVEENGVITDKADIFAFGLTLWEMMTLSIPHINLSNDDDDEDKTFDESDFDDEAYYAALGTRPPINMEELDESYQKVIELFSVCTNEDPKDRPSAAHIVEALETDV

[2] = target: Serine/threonine-protein kinase 10 (Homo sapiens) (UniProt O94804)
[3] = target: STE20-like serine/threonine-protein kinase (Homo sapiens) (UniProt Q9H2G2)
[4] = target: Serine/threonine-protein kinase 16 (Homo sapiens) (UniProt O75716)
[5] = target: Serine/threonine-protein kinase Nek6 (Homo sapiens) (UniProt Q9HC98)
[6] = target: Serine/threonine-protein kinase 26 (Homo sapiens) (UniProt Q9P289)
[7] = target: Calcium/calmodulin-dependent protein kinase type II subunit gamma (Homo sapiens) (UniProt Q13555)
[8] = target: T2, Calcium/calmodulin-dependent protein kinase type IV (Homo sapiens) (UniProt Q16566)
T2 sequence (whole entry): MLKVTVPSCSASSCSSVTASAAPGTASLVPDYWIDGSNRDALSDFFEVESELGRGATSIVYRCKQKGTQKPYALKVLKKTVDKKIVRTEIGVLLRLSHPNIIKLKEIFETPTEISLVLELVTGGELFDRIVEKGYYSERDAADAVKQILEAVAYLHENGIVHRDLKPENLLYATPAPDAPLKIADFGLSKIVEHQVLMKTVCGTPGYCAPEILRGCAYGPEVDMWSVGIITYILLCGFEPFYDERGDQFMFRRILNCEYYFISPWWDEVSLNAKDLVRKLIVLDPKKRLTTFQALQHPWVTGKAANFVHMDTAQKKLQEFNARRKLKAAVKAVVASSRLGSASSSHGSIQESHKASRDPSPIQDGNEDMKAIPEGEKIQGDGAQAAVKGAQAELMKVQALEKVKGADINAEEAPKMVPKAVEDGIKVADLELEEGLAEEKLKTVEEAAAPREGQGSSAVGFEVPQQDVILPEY

[9] = target: Calcium/calmodulin-dependent protein kinase type II subunit alpha (Homo sapiens) (UniProt Q9UQM7)
[10] = target: Cyclin-dependent kinase 6 (Homo sapiens) (UniProt Q00534)
[11] = target: Serine/threonine-protein kinase PAK 6 (Homo sapiens) (UniProt Q9NQU5)
[12] = target: T3, 3-phosphoinositide-dependent protein kinase 1 (Homo sapiens) (UniProt O15530)
T3 sequence (whole entry): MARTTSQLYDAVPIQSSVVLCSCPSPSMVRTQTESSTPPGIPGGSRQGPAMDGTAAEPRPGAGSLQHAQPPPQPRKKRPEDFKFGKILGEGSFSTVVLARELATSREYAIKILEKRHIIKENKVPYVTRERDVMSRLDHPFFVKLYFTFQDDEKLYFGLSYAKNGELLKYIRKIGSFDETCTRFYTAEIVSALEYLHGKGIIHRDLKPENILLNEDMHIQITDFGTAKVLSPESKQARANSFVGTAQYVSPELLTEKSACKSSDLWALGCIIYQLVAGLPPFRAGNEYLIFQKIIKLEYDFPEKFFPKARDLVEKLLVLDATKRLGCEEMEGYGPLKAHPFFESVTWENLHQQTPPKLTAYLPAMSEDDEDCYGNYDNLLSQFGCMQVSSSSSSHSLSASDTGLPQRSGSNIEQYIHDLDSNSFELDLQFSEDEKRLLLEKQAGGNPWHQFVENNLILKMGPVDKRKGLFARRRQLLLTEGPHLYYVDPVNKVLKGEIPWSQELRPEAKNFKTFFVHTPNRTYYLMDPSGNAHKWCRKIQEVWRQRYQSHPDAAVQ

[13] = target: T4, Serine/threonine-protein kinase Nek2 (Homo sapiens) (UniProt P51955)
T4 sequence (whole entry): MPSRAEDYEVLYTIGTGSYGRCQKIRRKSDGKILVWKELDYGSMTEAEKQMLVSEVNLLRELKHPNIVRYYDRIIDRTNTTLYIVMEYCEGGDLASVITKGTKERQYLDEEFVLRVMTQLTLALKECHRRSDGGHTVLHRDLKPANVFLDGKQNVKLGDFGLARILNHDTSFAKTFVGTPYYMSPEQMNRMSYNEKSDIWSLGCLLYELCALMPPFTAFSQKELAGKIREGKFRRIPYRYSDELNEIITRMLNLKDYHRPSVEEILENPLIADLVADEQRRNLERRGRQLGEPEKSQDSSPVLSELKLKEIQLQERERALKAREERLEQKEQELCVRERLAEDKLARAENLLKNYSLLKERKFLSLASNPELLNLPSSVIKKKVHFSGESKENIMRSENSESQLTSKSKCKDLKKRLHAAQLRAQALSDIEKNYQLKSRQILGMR

[14] = target: Ribosomal protein S6 kinase alpha-3 (Homo sapiens) (UniProt P51812)
[15] = target: Dual specificity protein kinase CLK1 (Homo sapiens) (UniProt P49759)
[16] = target: Serine/threonine-protein kinase 25 (Homo sapiens) (UniProt O00506)
[17] = target: Tyrosine-protein kinase JAK1 (Homo sapiens) (UniProt P23458)
[18] = target: Serine/threonine-protein kinase pim-3 (Homo sapiens) (UniProt Q86V86)

Sequence of Serine/threonine-protein kinase 25 (Homo sapiens) (O00506 whole entry, looked up): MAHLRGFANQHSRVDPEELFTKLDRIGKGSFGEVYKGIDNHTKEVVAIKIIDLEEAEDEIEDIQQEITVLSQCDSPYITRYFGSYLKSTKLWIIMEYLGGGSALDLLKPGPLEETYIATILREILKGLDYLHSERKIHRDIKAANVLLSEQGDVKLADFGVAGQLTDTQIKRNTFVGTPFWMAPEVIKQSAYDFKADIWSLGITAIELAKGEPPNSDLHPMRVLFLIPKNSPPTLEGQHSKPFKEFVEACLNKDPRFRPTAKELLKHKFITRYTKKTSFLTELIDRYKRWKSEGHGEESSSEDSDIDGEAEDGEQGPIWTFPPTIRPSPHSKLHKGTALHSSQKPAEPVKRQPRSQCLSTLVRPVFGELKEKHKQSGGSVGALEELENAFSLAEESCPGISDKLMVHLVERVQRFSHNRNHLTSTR
Sequence of Serine/threonine-protein kinase 26 (Homo sapiens) (Q9P289 2-416 limits assumed): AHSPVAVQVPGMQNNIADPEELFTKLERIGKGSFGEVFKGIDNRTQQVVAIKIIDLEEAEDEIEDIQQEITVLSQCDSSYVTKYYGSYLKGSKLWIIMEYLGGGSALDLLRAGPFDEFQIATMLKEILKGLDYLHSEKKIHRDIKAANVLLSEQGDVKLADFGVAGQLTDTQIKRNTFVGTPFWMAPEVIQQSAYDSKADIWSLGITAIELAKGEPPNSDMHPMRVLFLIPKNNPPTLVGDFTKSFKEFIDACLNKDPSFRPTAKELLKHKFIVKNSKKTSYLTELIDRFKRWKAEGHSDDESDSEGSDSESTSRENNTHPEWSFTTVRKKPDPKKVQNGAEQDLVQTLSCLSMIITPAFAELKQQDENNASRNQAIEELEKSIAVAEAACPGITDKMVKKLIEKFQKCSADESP
Sequence of Serine/threonine-protein kinase PAK 6 (Homo sapiens) (Q9NQU5 whole entry, looked up): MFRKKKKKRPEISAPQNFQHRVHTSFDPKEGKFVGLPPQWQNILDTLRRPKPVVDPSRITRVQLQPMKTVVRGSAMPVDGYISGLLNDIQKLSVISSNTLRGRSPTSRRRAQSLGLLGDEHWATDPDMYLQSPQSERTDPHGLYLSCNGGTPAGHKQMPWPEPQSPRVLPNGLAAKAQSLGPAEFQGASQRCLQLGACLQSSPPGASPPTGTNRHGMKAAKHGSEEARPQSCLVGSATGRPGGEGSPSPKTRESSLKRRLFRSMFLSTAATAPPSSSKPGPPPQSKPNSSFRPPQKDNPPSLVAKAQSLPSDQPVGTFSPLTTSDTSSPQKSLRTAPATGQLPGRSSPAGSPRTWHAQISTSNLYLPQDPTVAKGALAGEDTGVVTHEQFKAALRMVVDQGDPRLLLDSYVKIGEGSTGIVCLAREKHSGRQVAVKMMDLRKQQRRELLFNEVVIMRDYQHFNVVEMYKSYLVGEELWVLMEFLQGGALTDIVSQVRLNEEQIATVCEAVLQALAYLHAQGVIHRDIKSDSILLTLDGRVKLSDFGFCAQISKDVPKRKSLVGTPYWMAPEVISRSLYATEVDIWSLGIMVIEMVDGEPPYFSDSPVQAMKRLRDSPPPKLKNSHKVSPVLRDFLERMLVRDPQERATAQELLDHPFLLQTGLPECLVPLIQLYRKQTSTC
Sequence of Serine/threonine-protein kinase 10 (Homo sapiens) (O94804 whole entry, looked up): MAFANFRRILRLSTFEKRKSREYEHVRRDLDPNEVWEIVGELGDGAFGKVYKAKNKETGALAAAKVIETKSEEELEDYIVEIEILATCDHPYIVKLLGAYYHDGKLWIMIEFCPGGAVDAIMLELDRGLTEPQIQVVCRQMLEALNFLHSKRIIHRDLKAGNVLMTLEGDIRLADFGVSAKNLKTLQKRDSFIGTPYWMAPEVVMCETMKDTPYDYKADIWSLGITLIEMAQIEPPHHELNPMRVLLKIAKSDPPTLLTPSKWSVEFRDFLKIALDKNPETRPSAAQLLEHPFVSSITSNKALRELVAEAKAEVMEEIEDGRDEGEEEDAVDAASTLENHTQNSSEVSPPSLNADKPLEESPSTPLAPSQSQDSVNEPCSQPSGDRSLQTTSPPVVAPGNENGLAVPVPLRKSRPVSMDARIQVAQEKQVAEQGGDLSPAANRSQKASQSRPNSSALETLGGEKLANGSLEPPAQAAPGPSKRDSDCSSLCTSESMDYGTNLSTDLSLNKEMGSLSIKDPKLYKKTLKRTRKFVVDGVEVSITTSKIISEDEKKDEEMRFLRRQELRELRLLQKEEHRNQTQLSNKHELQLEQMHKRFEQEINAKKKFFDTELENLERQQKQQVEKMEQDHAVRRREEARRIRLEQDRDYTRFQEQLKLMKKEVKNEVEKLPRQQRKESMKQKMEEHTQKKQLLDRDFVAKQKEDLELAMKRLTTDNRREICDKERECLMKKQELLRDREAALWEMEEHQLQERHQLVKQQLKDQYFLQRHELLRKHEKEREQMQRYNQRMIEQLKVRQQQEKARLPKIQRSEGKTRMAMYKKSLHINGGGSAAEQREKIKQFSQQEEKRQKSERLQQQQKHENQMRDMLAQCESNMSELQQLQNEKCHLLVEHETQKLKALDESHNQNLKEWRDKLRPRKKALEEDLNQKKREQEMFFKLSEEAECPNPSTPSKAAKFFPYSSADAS
Sequence of Serine/threonine-protein kinase Nek6 (Homo sapiens) (Q9HC98 whole entry): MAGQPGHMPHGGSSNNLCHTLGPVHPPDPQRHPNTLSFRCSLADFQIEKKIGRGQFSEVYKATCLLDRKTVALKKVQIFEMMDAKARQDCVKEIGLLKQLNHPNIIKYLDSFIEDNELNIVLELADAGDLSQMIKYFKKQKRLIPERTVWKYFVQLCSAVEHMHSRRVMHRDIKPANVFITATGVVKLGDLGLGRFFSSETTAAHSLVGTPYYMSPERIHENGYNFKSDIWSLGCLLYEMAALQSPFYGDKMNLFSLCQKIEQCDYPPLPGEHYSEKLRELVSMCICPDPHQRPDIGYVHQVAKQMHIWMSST
Sequence of Serine/threonine-protein kinase 16 (Homo sapiens) (O75716 whole entry): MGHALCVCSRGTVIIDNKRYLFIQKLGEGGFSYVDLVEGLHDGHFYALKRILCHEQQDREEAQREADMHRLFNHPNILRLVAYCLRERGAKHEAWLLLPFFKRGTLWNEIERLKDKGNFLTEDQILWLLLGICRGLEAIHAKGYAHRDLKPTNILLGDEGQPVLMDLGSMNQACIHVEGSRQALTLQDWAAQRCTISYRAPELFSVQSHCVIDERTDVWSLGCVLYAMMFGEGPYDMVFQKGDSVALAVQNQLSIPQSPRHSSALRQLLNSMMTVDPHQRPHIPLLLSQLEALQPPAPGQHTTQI
Sequence of STE20-like serine/threonine-protein kinase (Homo sapiens) (Q9H2G2 whole entry, looked up): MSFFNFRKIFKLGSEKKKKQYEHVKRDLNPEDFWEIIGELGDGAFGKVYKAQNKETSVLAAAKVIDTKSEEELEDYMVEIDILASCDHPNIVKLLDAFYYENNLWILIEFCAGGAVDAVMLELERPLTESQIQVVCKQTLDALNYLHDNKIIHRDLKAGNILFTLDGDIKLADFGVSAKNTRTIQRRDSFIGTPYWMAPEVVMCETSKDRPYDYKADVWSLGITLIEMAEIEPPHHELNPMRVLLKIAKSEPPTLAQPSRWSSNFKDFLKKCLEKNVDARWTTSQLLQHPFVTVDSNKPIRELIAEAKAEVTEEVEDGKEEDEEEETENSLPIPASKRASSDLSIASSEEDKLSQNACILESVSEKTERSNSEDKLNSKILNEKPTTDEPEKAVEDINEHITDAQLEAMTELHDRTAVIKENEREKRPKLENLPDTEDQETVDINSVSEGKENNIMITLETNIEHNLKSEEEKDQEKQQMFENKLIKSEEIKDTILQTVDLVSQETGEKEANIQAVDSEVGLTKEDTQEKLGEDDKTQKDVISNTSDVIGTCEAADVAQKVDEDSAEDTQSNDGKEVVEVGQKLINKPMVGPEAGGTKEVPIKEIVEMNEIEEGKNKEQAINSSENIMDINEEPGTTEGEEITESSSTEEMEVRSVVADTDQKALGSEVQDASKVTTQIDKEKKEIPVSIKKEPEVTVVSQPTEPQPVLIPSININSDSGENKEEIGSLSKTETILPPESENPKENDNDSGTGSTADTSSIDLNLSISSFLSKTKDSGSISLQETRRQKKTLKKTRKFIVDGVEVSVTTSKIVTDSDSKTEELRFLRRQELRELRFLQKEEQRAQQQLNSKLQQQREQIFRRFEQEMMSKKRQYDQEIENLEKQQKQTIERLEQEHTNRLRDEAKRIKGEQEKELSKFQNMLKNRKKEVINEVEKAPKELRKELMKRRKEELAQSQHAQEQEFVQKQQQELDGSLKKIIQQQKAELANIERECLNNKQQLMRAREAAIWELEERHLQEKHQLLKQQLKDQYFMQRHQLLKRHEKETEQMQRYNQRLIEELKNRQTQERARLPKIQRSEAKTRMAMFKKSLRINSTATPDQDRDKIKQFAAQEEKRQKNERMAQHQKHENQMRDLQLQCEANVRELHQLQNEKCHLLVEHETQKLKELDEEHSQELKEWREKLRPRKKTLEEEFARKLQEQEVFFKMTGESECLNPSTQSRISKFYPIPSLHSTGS
Sequence of Cyclin-dependent kinase 6 (Homo sapiens) (Q00534 whole entry): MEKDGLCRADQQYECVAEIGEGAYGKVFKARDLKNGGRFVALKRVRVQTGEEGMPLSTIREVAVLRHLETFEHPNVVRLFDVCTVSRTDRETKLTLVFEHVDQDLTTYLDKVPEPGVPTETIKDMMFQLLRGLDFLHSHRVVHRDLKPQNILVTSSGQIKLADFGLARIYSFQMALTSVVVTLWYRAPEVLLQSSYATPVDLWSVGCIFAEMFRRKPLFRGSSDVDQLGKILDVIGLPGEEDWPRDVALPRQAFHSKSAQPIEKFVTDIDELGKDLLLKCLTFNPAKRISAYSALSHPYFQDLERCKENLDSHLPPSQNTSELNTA

SMILES	ΔTm [1] [°C]	ΔTm [2] [°C]	ΔTm [3] [°C]	ΔTm [4] [°C]	ΔTm [5] [°C]	ΔTm [6] [°C]	ΔTm [7] [°C]	ΔTm [8] [°C]	ΔTm [9] [°C]	ΔTm [10] [°C]	ΔTm [11] [°C]	ΔTm [12] [°C]	ΔTm [13] [°C]	ΔTm [14] [°C]	ΔTm [15] [°C]	ΔTm [16] [°C]	ΔTm [17] [°C]	ΔTm [18] [°C]
COc1cc(C[C@H]2C(=O)OC[C@@H]2Cc2ccc(OC)c(OC)c2)ccc1O [ARCTIGENIN]	-0.7	0.7	-0.5	0	-0.7	-0.3	0.3	-0.5	0.1	0.4	0.1	0	1.1	-0.1	-1	0.1	-0.1	0.6
O=C1NC(=O)c2c1c1c3ccccc3n3c1c1c2c2ccccc2n1C1CCC3O1	-0.3	-0.5	0.1	1.7	-0.3	1.5	0	-0.2	-0.4	-0.3	1.5	-0.1	0.3	-0.4	3.3	2.1	-0.2	7.3
O=C1C(Cl)=C(N2C(=O)CCC2=O)C(=O)c2ccccc21	-4.4	-0.5	-0.6	-0.1	-0.3	-1.4	-0.4	1.2	3.4	1.6	-5	-1.9	2.5	-2.4	-1.1	-0.5	-2.9	-1.7
CN(C)c1ncnc2nc[nH]c12 [DIMETHYLADENINE]	0.5	-0.4	0.8	0.5	0	0.1	0	0.1	1.7	0.1	-0.3	0.1	0.8	0.8	1.3	0.9	0.9	0.9
O=C1Nc2ccccc2/C1=C/c1cnc[nH]1	0.1	4.2	3.3	7.5	0	4.3	1.2	0.7	0.7	4.4	1.9	1.3	2	1	3.3	6.3	6.9	3.3
O=C1Nc2ccc(S(=O)(=O)O)cc2/C1=C1/Nc2ccccc2/C1=N\O	0.4	0.5	1.1	4.9	0.8	1.2	2.5	1.3	4.8	2.9	3.2	0.7	3.5	6.1	3.9	2.2	4.3	5.1
O=c1c2ccccc2[nH]c(=S)n1CCN1CCC(=C(c2ccc(F)cc2)c2ccc(F)cc2)CC1 [DIACYLGLYCEROL KINASE INHIBITOR II]	0.1	3.6	2.3	0.3	0.1	2.4	-0.5	0.2	-0.6	-0.4	-0.1	0.6	1.5	0.3	0.3	1.5	0.6	0.9
Cn1cnc2c(NCc3ccccc3)nc(NCCO)nc21 [OLOMOUCINE]	0.4	0.5	0	0.7	0	0.2	0.1	0.1	-0.3	0	-0.5	0	1.1	-0.2	-0.2	0	0	-0.1
